# Data from patent US20240287080A1 (IDEAYA Biosciences Inc., priority 2021, published 2024).
# Molecular target: T1, Pol theta (1-899) (Homo sapiens, UniProt O75417)
# T1 construct: Pol theta (1-899) (5 nM) in assay buffer
# Assay: Pol theta ATPase activity, NADH oxidation-coupled enzymatic assay (ATPase NADH coupling: Standard Screening: hPolQ)
# Assay type: biochemical
# Details: Table 5, Pol theta (1-899) 5 nM, ATP, dT50 ssDNA
# How it was run: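 NADH-coupled ATPase readout: 5 nM Pol theta (1-899) preincubated 15 min with 10-point compound series in Tris pH 7.80, KCl, MgCl2, DTT, BSA, Tween, glycerol, then 100 μM ATP, 300 nM 50-mer poly-dT ssDNA, NADH, PEP, LDH and PK added (stock levels). A340 followed 60 min; slopes fit four-parameter for IC50.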
# T1 sequence (O75417 1-899): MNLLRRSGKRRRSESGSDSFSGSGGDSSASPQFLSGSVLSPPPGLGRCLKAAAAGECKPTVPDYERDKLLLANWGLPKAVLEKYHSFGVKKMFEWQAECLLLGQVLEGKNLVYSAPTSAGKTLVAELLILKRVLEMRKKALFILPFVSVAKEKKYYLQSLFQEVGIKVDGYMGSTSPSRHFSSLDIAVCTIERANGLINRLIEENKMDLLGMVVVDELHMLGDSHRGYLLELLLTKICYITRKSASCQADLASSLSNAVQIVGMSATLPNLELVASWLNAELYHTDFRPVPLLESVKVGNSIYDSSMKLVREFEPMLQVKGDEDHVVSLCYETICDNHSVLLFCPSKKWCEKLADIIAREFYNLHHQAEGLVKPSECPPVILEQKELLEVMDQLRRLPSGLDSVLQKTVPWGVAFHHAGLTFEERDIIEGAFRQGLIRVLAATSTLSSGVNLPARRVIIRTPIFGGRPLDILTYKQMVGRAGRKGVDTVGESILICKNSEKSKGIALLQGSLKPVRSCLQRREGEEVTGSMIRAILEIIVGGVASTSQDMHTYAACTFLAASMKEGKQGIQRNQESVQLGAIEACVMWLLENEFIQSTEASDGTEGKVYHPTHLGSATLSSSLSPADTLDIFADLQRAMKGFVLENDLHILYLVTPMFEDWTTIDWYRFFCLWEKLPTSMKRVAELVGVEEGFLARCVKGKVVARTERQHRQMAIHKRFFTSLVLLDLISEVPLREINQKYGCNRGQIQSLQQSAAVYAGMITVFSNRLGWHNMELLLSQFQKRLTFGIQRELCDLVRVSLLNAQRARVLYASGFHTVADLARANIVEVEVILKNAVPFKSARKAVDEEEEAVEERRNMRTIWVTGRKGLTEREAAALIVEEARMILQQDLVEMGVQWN
smiles,measurement,setting,value
"Cc1cc(-c2cc(Cl)ncc2OC(F)F)c(C(=O)Nc2nnc(O[C@@H]3CCOC3)s2)cn1 [Example 82, (R)-2′-chloro-5′-(difluoromethoxy)-6-methyl-N-(5-((tetrahydrofuran-3-yl)oxy)-1,3,4-thiadiazol-2-yl)-(4,4′-bipyridine)-3-carboxamide]",IC50,,≤ 200 nM
"Cc1cc(-c2cc(Cl)ncc2OC(F)F)c(C(=O)Nc2nnc(O[C@H]3CCOC3)s2)cn1 [Example 83, (S)-2′-chloro-5′-(difluoromethoxy)-6-methyl-N-(5-((tetrahydrofuran-3-yl)oxy)-1,3,4-thiadiazol-2-yl)-(4,4′-bipyridine)-3-carboxamide]",IC50,,≤ 200 nM
COc1cnc(Br)cc1-c1cc(C)ncc1C(=O)Nc1nnc(O[C@@H]2CCOC2)s1 [Example 84],IC50,,≤ 200 nM
"COc1nnc(NC(=O)c2cnc(C)cc2-c2cccn3nnnc23)s1 [Example 85, N-(5-methoxy-1,3,4-thiadiazol-2-yl)-6-methyl-4-(tetrazolo(1,5-a)pyridin-8-yl)nicotinamide]",IC50,,1000 to 10000 nM
"COc1nnc(NC(=O)c2cnc(C)cc2-c2ccnc3nccn23)s1 [Example 88, 4-(imidazo(1,2-a)pyrimidin-5-yl)-N-(5-methoxy-1,3,4-thiadiazol-2-yl)-6-methylnicotinamide]",IC50,,1000 to 10000 nM
"COc1nnc(NC(=O)c2cnc(C)cc2-c2ccnc3ncnn23)s1 [Example 91, 4-((1,2,4)triazolo(1,5-a)pyrimidin-7-yl)-N-(5-methoxy-1,3,4-thiadiazol-2-yl)-6-methylnicotinamide]",IC50,,1000 to 10000 nM
"COc1nnc(NC(=O)c2cnc(C)cc2-c2cccc3scnc23)s1 [Example 98, 4-(benzo(d)thiazol-4-yl)-N-(5-methoxy-1,3,4-thiadiazol-2-yl)-6-methylnicotinamide]",IC50,values given as bound,> 10000 nM
"COc1nnc(NC(=O)c2cnc(C)cc2-c2ccnc(Cl)c2)s1 [Example 100, 2′-chloro-N-(5-methoxy-1,3,4-thiadiazol-2-yl)-6-methyl-(4,4′-bipyridine)-3-carboxamide]",IC50,,200 to 500 nM
"COc1nnc(NC(=O)c2cnc(C)cc2-c2ccncc2OC)s1 [Example 101, 3′-methoxy-N-(5-methoxy-1,3,4-thiadiazol-2-yl)-6-methyl-(4,4′-bipyridine)-3-carboxamide]",IC50,,1000 to 10000 nM
"COc1nnc(NC(=O)c2cnc(C)cc2-c2cccc(Cl)c2)s1 [Example 102, 4-(3-chlorophenyl)-N-(5-methoxy-1,3,4-thiadiazol-2-yl)-6-methylnicotinamide]",IC50,,200 to 500 nM
"COc1nnc(NC(=O)c2cn3c(C)ncc3cc2-c2cc(Cl)ncc2OC)s1 [Example 103, 7-(2-chloro-5-methoxypyridin-4-yl)-N-(5-methoxy-1,3,4-thiadiazol-2-yl)-3-methylimidazo(1,5-a)pyridine-6-carboxamide]",IC50,,≤ 200 nM
"COc1nnc(NC(=O)c2cnc(C)cc2-c2cc3cn[nH]c3cc2OC)s1 [Example 104, N-(5-methoxy-1,3,4-thiadiazol-2-yl)-4-(6-methoxy-1H-indazol-5-yl)-6-methylnicotinamide]",IC50,,200 to 500 nM
"COc1nnc(NC(=O)c2cnc(C)cc2-c2ccc3nscc3c2)s1 [Example 105, 4-(benzo(c)isothiazol-5-yl)-N-(5-methoxy-1,3,4-thiadiazol-2-yl)-6-methylnicotinamide]",IC50,,1000 to 10000 nM
"COc1nnc(NC(=O)c2nn(C)cc2-c2cc(Cl)ncc2OC)s1 [Example 107, 4-(2-chloro-5-methoxypyridin-4-yl)-N-(5-methoxy-1,3,4-thiadiazol-2-yl)-1-methyl-1H-pyrazole-3-carboxamide]",IC50,values given as bound,> 10000 nM
"COc1nnc(NC(=O)c2c[nH]nc2-c2cc(Cl)ncc2OC)s1 [Example 109, 3-(2-chloro-5-methoxypyridin-4-yl)-N-(5-methoxy-1,3,4-thiadiazol-2-yl)-1H-pyrazole-4-carboxamide]",IC50,,1000 to 10000 nM
"COc1nnc(NC(=O)c2cn(C)nc2-c2cc(Cl)ncc2OC)s1 [Example 110, 3-(2-chloro-5-methoxypyridin-4-yl)-N-(5-methoxy-1,3,4-thiadiazol-2-yl)-1-methyl-1H-pyrazole-4-carboxamide]",IC50,values given as bound,> 10000 nM
"COc1nnc(NC(=O)c2cn3c(C)cnc3cc2-c2c(F)cccc2OC)s1 [Example 120, 7-(2-fluoro-6-methoxyphenyl)-N-(5-methoxy-1,3,4-thiadiazol-2-yl)-3-methylimidazo(1,2-a)pyridine-6-carboxamide]",IC50,values given as bound,> 10000 nM
"COc1nnc(NC(=O)c2cc(CO)ncc2-c2c(F)cccc2OC)s1 [Example 121, 5-(2-fluoro-6-methoxyphenyl)-2-(hydroxymethyl)-N-(5-methoxy-1,3,4-thiadiazol-2-yl)isonicotinamide]",IC50,values given as bound,> 10000 nM
"COc1cnc(Br)cc1-c1cc(C)ncc1C(=O)Nc1nnc(O[C@H]2CCOC2)s1 [Example 122, (S)-2′-bromo-5′-methoxy-6-methyl-N-(5-((tetrahydrofuran-3-yl)oxy)-1,3,4-thiadiazol-2-yl)-(4,4′-bipyridine)-3-carboxamide]",IC50,,≤ 200 nM
"COc1nnc(NC(=O)c2cnc(C)cc2-c2cccn3ncnc23)s1 [Example 123, 4-((1,2,4)triazolo(1,5-a)pyridin-8-yl)-N-(5-methoxy-1,3,4-thiadiazol-2-yl)-6-methylnicotinamide]",IC50,values given as bound,> 10000 nM
"COc1nnc(NC(=O)c2cnc(C)cc2-c2cnn3c2OCC3)s1 [Example 126, 4-(2,3-dihydropyrazolo(5,1-b)oxazol-7-yl)-N-(5-methoxy-1,3,4-thiadiazol-2-yl)-6-methylnicotinamide]",IC50,,1000 to 10000 nM
"COc1cnc(Cl)c(F)c1-c1cc(C)ncc1C(=O)Nc1nnc(O[C@H]2C[C@@H](O)C2)s1 [Example 129, 2′-chloro-3′-fluoro-N-(5-((1s,3s)-3-hydroxycyclobutoxy)-1,3,4-thiadiazol-2-yl)-5′-methoxy-6-methyl-(4,4′-bipyridine)-3-carboxamide]",IC50,,≤ 200 nM
"COc1cnc(Cl)cc1-c1cc(C2CCCC2)ncc1C(=O)Nc1nnc(O[C@@H]2CCOC2)s1 [Example 134, (R)-2′-chloro-6-cyclopentyl-5′-methoxy-N-(5-((tetrahydrofuran-3-yl)oxy)-1,3,4-thiadiazol-2-yl)-(4,4′-bipyridine)-3-carboxamide]",IC50,,500 to 1000 nM
"COc1cnc(Cl)cc1-c1cc(C)ncc1C(=O)Nc1nnc(OC2CC3(COC3)C2)s1 [Example 135, N-(5-((2-oxaspiro (3.3)heptan-6-yl)oxy)-1,3,4-thiadiazol-2-yl)-2′-chloro-5′-methoxy-6-methyl-(4,4′-bipyridine)-3-carboxamide]",IC50,,≤ 200 nM
"COCc1cc(-c2cc(Cl)ncc2OC)c(C(=O)Nc2nnc(O[C@@H]3CCOC3)s2)cn1 [Example 142, (R)-2′-chloro-5′-methoxy-6-(methoxymethyl)-N-(5-((tetrahydrofuran-3-yl)oxy)-1,3,4-thiadiazol-2-yl)-(4,4′-bipyridine)-3-carboxamide]",IC50,,≤ 200 nM
"COc1nnc(NC(=O)c2cnc(C3CCCC3)cc2-c2cc(Cl)ncc2OC)s1 [Example 143, 2′-chloro-6-cyclopentyl-5′-methoxy-N-(5-methoxy-1,3,4-thiadiazol-2-yl)-(4,4′-bipyridine)-3-carboxamide]",IC50,,200 to 500 nM
"COc1nnc(NC(=O)c2cnc(CN3CC(OC)C3)cc2-c2cc(Cl)ncc2OC)s1 [Example 144, 2′-chloro-5′-methoxy-N-(5-methoxy-1,3,4-thiadiazol-2-yl)-6-((3-methoxyazetidin-1-yl)methyl)-(4,4′-bipyridine)-3-carboxamide]",IC50,values given as bound,> 10000 nM
"COCc1cc(-c2cc(Cl)ncc2OC)c(C(=O)Nc2nnc(OC)s2)cn1 [Example 158, 2′-chloro-5′-methoxy-N-(5-methoxy-1,3,4-thiadiazol-2-yl)-6-(methoxymethyl)-(4,4′-bipyridine)-3-carboxamide]",IC50,,≤ 200 nM
"COc1cnc(Cl)cc1-c1cc(C)ncc1C(=O)Nc1nnc(OC2CCCC2OC)s1 (stereo not shown) [Example 163, 2′-chloro-5′-methoxy-N-(5-((2-methoxycyclopentyl)oxy)-1,3,4-thiadiazol-2-yl)-6-methyl-(4,4′-bipyridine)-3-carboxamide]",IC50,,≤ 200 nM
"COc1cnc(Cl)cc1-c1cc(C)ncc1C(=O)Nc1nnc(O[C@H]2CC[C@H](CO)CC2)s1 [Example 168, 2′-chloro-N-(5-(((1r,4r)-4-(hydroxymethyl)cyclohexyl)oxy)-1,3,4-thiadiazol-2-yl)-5′-methoxy-6-methyl-(4,4′-bipyridine)-3-carboxamide]",IC50,,≤ 200 nM
"COc1cnc(Cl)cc1-c1cc(C)ncc1C(=O)Nc1nnc(O[C@H]2CC[C@@H](CO)CC2)s1 [Example 169, 2′-chloro-N-(5-(((1s,4s)-4-(hydroxymethyl)cyclohexyl)oxy)-1,3,4-thiadiazol-2-yl)-5′-methoxy-6-methyl-(4,4′-bipyridine)-3-carboxamide]",IC50,,≤ 200 nM
"COc1cnc(Cl)cc1-c1cc(C)ncc1C(=O)Nc1nnc(O[C@H]2CC[C@@H](C(C)(C)O)CC2)s1 [Example 175, 2′-chloro-N-(5-(((1s,4s)-4-(2-hydroxypropan-2-yl)cyclohexyl)oxy)-1,3,4-thiadiazol-2-yl)-5′-methoxy-6-methyl-(4,4′-bipyridine)-3-carboxamide]",IC50,,≤ 200 nM
"COc1cnc(Cl)cc1-c1cc(C)ncc1C(=O)Nc1nnc(O[C@H]2CC[C@H](C(C)(C)O)CC2)s1 [Example 187, 2′-chloro-N-(5-(((1r,4r)-4-(2-hydroxypropan-2-yl)cyclohexyl)oxy)-1,3,4-thiadiazol-2-yl)-5′-methoxy-6-methyl-(4,4′-bipyridine)-3-carboxamide]",IC50,,≤ 200 nM
"COc1cnc(Br)cc1-c1cc(C)ncc1C(=O)Nc1nnc(OC2COC2)s1 [Example 188, 2′-bromo-5′-methoxy-6-methyl-N-(5-(oxetan-3-yloxy)-1,3,4-thiadiazol-2-yl)-(4,4′-bipyridine)-3-carboxamide]",IC50,,≤ 200 nM
